Values belong to the compound of their own block, whether it stands above or below them. Where no end group is shown, it is not given here.
Assays:
[1] = tested on: U87-MG cells; assay: Intracellular Ca2+ mobilization by Gq-coupled receptor agonists (FLIPR, Fluo-4), U87-MG; assay type: cell-based, human; conditions: U87-MG, FLIPR, Fluo-4, 3 min, n = 3
Method: (§1) Cells were seeded in 96-well plates (clear bottom and black wall) at 2.5 × 10^4 cells per well on the day before assay. The cells (~80–100% confluence) were then washed with Hank’s balanced salt solution (HBSS) and aspirated, followed by addition of 100 μL of FLIPR labeling dye (containing Fluo-4 and probenecid in HBSS) to each well before incubation at 37 °C for 1 h. Finally, the 96-well plate containing the labeled cells was transferred to the FLIPR (Molecular Devices, San Jose, CA, USA), and 50 μL of HBSS (with or without agonists) was added to each well. The fluorescent signals that reflect the intracellular Ca^2+ transients were monitored by an excitation wavelength of 488 nm, and detection was undertaken with an emission wavelength from 510 to 570 nm for 3 min upon the drug treatments, as described previously.

[2] = tested on: 1321-N1 cells; assay: Intracellular Ca2+ mobilization by Gq-coupled receptor agonists (FLIPR, Fluo-4), 1321-N1; assay type: cell-based, human; conditions: 1321-N1, FLIPR, Fluo-4, 3 min, n = 3
Method: as §1

[3] = tested on: primary astrocytes; assay: Intracellular Ca2+ mobilization by Gq-coupled receptor agonists (FLIPR, Fluo-4), primary cortical astrocytes; assay type: cell-based, mouse; conditions: n = 4
Method: HEK293, U87-MG, 1321N1, SK-N-SH, and SK-N-MC cells were cultured in MEM supplemented with 10% (vol/vol) fetal bovine serum (FBS), 50 U/mL penicillin, and 50 μg/mL streptomycin. Primary astrocyte cultures were prepared from the cerebral cortexes of neonatal mice (P2). The cerebral hemispheres were isolated and transferred to ice-cold Hank’s buffer, and the meninges were carefully removed. Tissues were then minced into approximately 1 mm pieces, triturated, filtered through a 60 µm nylon screen, and collected by centrifugation at approximately 3000× g for 5 min. The cell pellets were dispersed with a pipette and resuspended in a medium containing 10% (vol/vol) FBS in low-glucose Dulbecco’s modified Eagle’s medium. After trituration, the cells were filtered through a 10 µm screen and then plated into 6-well plates at a density of 3 × 10^5 cells/mL and cultured for about 10 days. The medium was replaced twice per week. Dibutyryl cyclic adenosine monophosphate (DBcAMP; 0.15 mM, Sigma, St Louis, MO, USA) was added to induce differentiation when the cells were grown to 95% confluence. Primary mouse cortical neuronal cultures were obtained from E16 ICR mouse embryos. Briefly, cerebral cortices were removed from mouse embryos and mechanically dissociated in PBS with glucose (18 mM). Neurons were then seeded onto poly-L-lysine (1 mg/mL)-coated 96-well plates at 5 × 10^4 cells/well in a B27 Plus Neuronal culture system (Thermo Fisher Scientific), supplemented with 2 mM glutamine, 5 μM mercaptoethanol, 100 U/mL penicillin and 100 μg/mL streptomycin. The cultured neurons were maintained in a humidified incubator at 37 °C with 5% CO2 for 7 days prior to use.
as §1

[4] = tested on: B2R-mediated LIF secretion in U87-MG cells; assay: Inhibition of bradykinin-induced LIF production (ELISA), U87-MG; assay type: cell-based, human; conditions: 10 μM inhibitor, 30 min pre-treatment, bradykinin 1 µM, 24 h
Method: Conditioned media were analyzed for the presence of multiple cytokines by using the cytokine multiplex assay kits (Merck Millipore, MA, USA) as previously described. Briefly, a bead mixture with various capture antibodies (50 μL) was added to a 96-well microtiter plate, followed by 50 μL of cytokine standard mix or test sample and then 25 μL of a biotinylated detection antibody mixture. The mixtures were incubated for 30 min at 25 °C with gentle shaking. Unbound antibodies were removed by three gentle washes. Finally, 50 μL of streptavidin–PE solution was added and incubated for another 30 min with gentle shaking. The detection beads were then washed again and resuspended in 120 μL of reading buffer. The Bio-Plex™ 200 system (Bio-Rad Laboratories, Hercules, CA, USA) with the Bio-Plex manager software (version 5.0) was utilized for signal detection and data analysis. Curve fitting was applied to each standard curve according to the manufacturer’s manual and sample concentrations were interpolated from the standard curves. Individual detections for LIF and IL-6 were performed using the corresponding ELISA kits from Abcam (Cambridge, UK) according to the manufacturer’s instructions.
The resulting Ca^2+ signal profiles were monitored by FLIPR for 3 min.

[5] = tested on: melatonin MT1 receptor with Gα16; assay type: cell-based, human
Method: Supplementary Methods (for Supplementary Figures) […]
(Merck Millipore, MA, USA). HEK293 cells (80-100% confluence in 6-well plates) stably expressing MT1R alone or together with Gα16 as described previously [Ref. 21] were treated with 1 μM of melatonin (Tocris Bioscience, Minneapolis, MN) in 1 mL of MEM per well without FBS for 24 h. The resulting conditioned media were collected in 1.5 mL microcentrifuge tubes, with the presence of secretory LIF and IL-6 quantified by ELISA assays (Abcam, Cambridge, UK) according to the manufacturer’s […]

[6] = tested on: STAT3 in SK-N-MC cells; assay: STAT3 Tyr705 phosphorylation in SK-N-MC by conditioned media from agonist-treated U87-MG; assay type: cell-based, human; conditions: U87-MG treated with bombesin 1 μM, bradykinin 1 μM or histamine 10 μM, 24 h; media on SK-N-MC 15 min
Method: These conditioned media were either immediately applied to SK-N-SH/SK-N-MC cells (80–100% confluence) in 6-well plates for 15 min, or subjected to heat treatment on a 96 °C heat block for 5 min, and then cooled to 37 °C before they were applied to the SK-N-SH/SK-N-MC cells for 15 min. […] For the SK-N-MC-derived conditioned media, SK-N-MC cells (80–100% confluence) in a 10 cm culture dish were serum-starved in 10 mL of MEM (without FBS), with 1 mL of the resulting conditioned medium being collected at indicated time points (15 min, 1 h, 3 h, 6 h). Simultaneously, U87-MG cells (80–100% confluence) in 12-well plates were serum-starved in MEM for 6 h, followed by pretreatment of […] (5 μM, 15 min), and then challenged with the SK-N-MC-derived conditioned media (mentioned above) for 10 min before cell lysis. […]
SDS-PAGE and Western blotting were performed as described in our previous studies. […] The amount of protein in each sample was determined by detergent compatible (DC) protein assay according to the supplier’s instruction (Bio-Rad, Hercules, CA, USA). […] Resolved proteins were detected by specific primary antibodies and horseradish peroxidase-conjugated secondary antisera. The level of β-actin was determined as an internal control.

[7] = tested on: STAT3 in primary mouse astrocytes; assay: STAT3 phosphorylation by direct application of cytokine, primary astrocytes; assay type: cell-based; conditions: 0–100 ng/mL, 15 min, n = 3
Method: To determine if the experimental cells were readily responsive to LIF and IL-6, SK-N-MC cells, mouse primary neurons and primary astrocytes (80–100% confluence in 12-well plates) were serum-starved for 6 h, followed by treatment of indicated concentrations (0–100 ng/mL) of LIF and IL-6 for 15 min. The subsequent cell lysates were subjected to SDS-PAGE and Western blot with specific antibodies to detect stimulatory phosphorylated forms and the total amounts of STAT3.
SDS-PAGE and Western blotting were performed as described in our previous studies. In brief, cells in 6-well plates (5 × 10^5 cells/well) were lysed in 500 μL of ice-cold lysis buffer (50 mM Tris-HCl at pH 7.5 containing 100 mM NaCl, 5 mM EDTA, 40 mM NaP2O7, 1% Triton X-100, 1 mM dithiothreitol, 200 μM Na3VO4, 100 μM phenylmethylsulfonyl fluoride, 2 μg/mL leupeptin, 4 μg/mL aprotinin, and 0.7 μg/mL pepstatin) and then gently shaken for 30 min. The amount of protein in each sample was determined by detergent compatible (DC) protein assay according to the supplier’s instruction (Bio-Rad, Hercules, CA, USA). Clarified lysates (30 μg protein per sample) were resolved on 12% SDS-polyacrylamide gels and then transferred to nitrocellulose membranes (Westborough, MA, USA). Resolved proteins were detected by specific primary antibodies and horseradish peroxidase-conjugated secondary antisera. The level of β-actin was determined as an internal control. Immunoblots were visualized by chemiluminescence with the WesternBright ECL reagents from Advansta (San Jose, CA, USA). Chemiluminescence signals were then detected by ChemiDoc imaging systems (Bio-Rad, Hercules, CA, USA) with the subsequent band densities quantified by ImageJ (https://imagej.net/ij/) analysis software (National Institutes of Health, MD, USA). All primary antibodies which specifically recognize B1R, B2R, ERK, p-ERK, p38, p-p38, JNK, p-JNK, STAT3, p-STAT3, and β-actin were applied at 1:1000 dilution for Western blotting.

Compound: Nc1ncnc2c1ncn2[C@@H]1O[C@H](COP(=O)(O)OP(=O)(O)OP(=O)(O)O)[C@@H](O)[C@H]1O [ATP]
- intracellular Ca2+ response ([1]; 1 μM agonist): effective in U87-MG cells
- intracellular Ca2+ response ([2]; 1 μM agonist): did not respond to ATP for triggering Ca^2+ transients
- intracellular Ca2+ mobilization ([3]; 1 μM agonist): significantly stimulated Ca^2+ mobilization

Compound: Cn1c2ccccc2c2c3c(c4c5ccccc5n(CCC#N)c4c21)CNC3=O [Go6976]
- inhibition of bradykinin-induced LIF secretion by protein kinase inhibitors [4]: Partial inhibition of LIF secretion

Compound: COc1cccc(-c2cc(=O)c3ccccc3o2)c1N [PD98059]
- inhibition of bradykinin-induced LIF secretion by protein kinase inhibitors [4]: found to require

Compound: C[S+]([O-])c1ccc(-c2nc(-c3ccncc3)c(-c3ccc(F)cc3)[nH]2)cc1 (centres unmarked) [SB203580]
- inhibition of bradykinin-induced LIF secretion by protein kinase inhibitors [4]: found to require

Compound: Oc1c2ccccc2c2c3c(cccc13)N=N2 [SP600125]
- inhibition of bradykinin-induced LIF secretion by protein kinase inhibitors [4]: partially inhibited bradykinin-induced LIF secretion

Compound: CN(C)S(=O)(=O)c1ccc2c(c1)/C(=C/c1cc3c([nH]1)CCCC3)C(=O)N2 [SU6656]
- inhibition of bradykinin-induced LIF secretion by protein kinase inhibitors [4]: found to require

Compound: N[C@@H](CCC(=O)O)C(=O)O [glutamate]
- intracellular Ca2+ mobilization ([3]; 1 μM agonist): significantly stimulated Ca^2+ mobilization

- IL-6 release [5]: induced the release of both LIF and IL-6
- LIF release [5]: induced the release of both LIF and IL-6
Compound: COc1ccc2[nH]cc(CCNC(C)=O)c2c1 [melatonin]

Compound: CNC[C@H](O)c1cccc(O)c1 [phenylephrine]
- intracellular Ca2+ mobilization ([3]; 10 μM agonist): significantly stimulated Ca^2+ mobilization

Compound: CCCCC[C@H](O)/C=C/[C@H]1[C@H](O)CC(=O)[C@@H]1C/C=C\CCCC(=O)O [prostaglandin E2]
- intracellular Ca2+ mobilization ([3]; 1 μM agonist): significantly stimulated Ca^2+ mobilization

Compound: NCCc1c[nH]c2ccc(O)cc12 [serotonin]
- intracellular Ca2+ response ([1]; 10 μM agonist): could not trigger the activity
- intracellular Ca2+ response ([2]; 10 μM agonist): could not trigger the activity

Compound: CCCCCCCCCCCCC/C=C/[C@@H](O)[C@@H](N)COP(=O)(O)O [sphingosine-1-phosphate]
- intracellular Ca2+ response ([1]; 1 μM agonist): significantly stimulated intracellular Ca^2+ responses
- intracellular Ca2+ response ([2]; 1 μM agonist): significantly stimulated intracellular Ca^2+ responses
- intracellular Ca2+ mobilization ([3]; 1 μM agonist): significantly stimulated Ca^2+ mobilization

Compound: angiotensin II (DRVYIHPF; Angiotensin-2; UniProt P01019 25-32, looked up)
- intracellular Ca2+ response ([1]; 1 μM agonist): effective in U87-MG cells

Compound: bombesin
- intracellular Ca2+ response ([1]; 1 μM agonist): significantly stimulated intracellular Ca^2+ responses
- intracellular Ca2+ response ([2]; 1 μM agonist): significantly stimulated intracellular Ca^2+ responses
- STAT3 Tyr705 phosphorylation by conditioned media [6]: sometimes failed to induce STAT3 phosphorylation
- intracellular Ca2+ mobilization ([3]; 1 μM agonist): significantly stimulated Ca^2+ mobilization

Compound: endothelin
- intracellular Ca2+ response ([2]; 100 nM agonist): elicited Ca^2+ responses in 1321-N1 cells
- intracellular Ca2+ mobilization ([3]; 100 nM agonist): significantly stimulated Ca^2+ mobilization

Compound: interleukin-6 [IL-6]
- STAT3 phosphorylation [7]: significant stimulatory phosphorylation of STAT3

Compound: neurokinin B
- intracellular Ca2+ mobilization ([3]; 1 μM agonist): significantly stimulated Ca^2+ mobilization

Compound: neuromedin U25 (FRVDEEFQSPFASQSRGYFLFRPRN; ends and bridges not checked; UniProt P48645 142-166, looked up)
- intracellular Ca2+ response ([1]; 1 μM agonist): effective in U87-MG cells

Compound: neurotensin
- intracellular Ca2+ response ([1]; 1 μM agonist): could not trigger the activity
- intracellular Ca2+ response ([2]; 1 μM agonist): could not trigger the activity

Compound: oxytocin
- intracellular Ca2+ response ([1]; 1 μM agonist): effective in U87-MG cells
- intracellular Ca2+ mobilization ([3]; 1 μM agonist): significantly stimulated Ca^2+ mobilization

— article PMC11642044 (International Journal of Molecular Sciences, 2024)
